Experimental findings from patent publication US11198673B2, “Therapeutic compounds and compositions” (eXIthera Pharmaceuticals, Inc., priority 2014, dated 2021) are described below.

In brackets after ≈: the same amount, converted by molar mass.

One series has as its target T1, human Factor XIa (Homo sapiens, UniProt P03951).
T1 construct: Enzyme: Factor XIa; 0.25 μM in 50% glycerol (20 μg/mL)
Put plainly: Factor XIa enzyme inhibition assay (IC50, purified enzyme). The note with it: purified enzyme 0.25 nM, substrate 50 μM; read-out: Potency hFXIa IC50. The format is biochemical. The essentials: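 Fluorogenic Glp-Pro-Arg-AMC cleavage, 50 μM substrate, 0.25 nM enzyme, in 20 mM Hepes pH 7.4, 150 mM NaCl, 0.02% Tween 20. Serial two-fold compound dilutions from starting concentrations of 20, 2 and 0.2 μM. Read every minute for 30 min at 30° C; IC50 from a four-parameter fit of dose-response.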

A further series has as its target T2, Factor Xa (Homo sapiens, UniProt P00742).
T2 construct: Factor Xa; 0.2 μM in 50% glycerol (9.2 μg/mL)
Put plainly: Dose response assay for protease inhibitors: Factor Xa (FXIa fold selectivity). The format is biochemical. Conditions: fold selectivity for FXIa over Factor Xa.

The next series has as its target T3, Thrombin (Homo sapiens, UniProt P00734).
T3 construct: Thrombin; 0.2 μM in 50% glycerol (7.34 μg/mL)
Put plainly: Dose response assay for protease inhibitors: thrombin (FXIa fold selectivity). The format is biochemical. Conditions: fold selectivity for FXIa over thrombin.

For the next series, the system named is Trypsin. Put plainly: Dose response assay for protease inhibitors: trypsin (FXIa fold selectivity). The format is biochemical. The note with it: fold selectivity for FXIa over trypsin.
Series [1] is described as follows: β-Lactam stability in rat plasma. The format is in vitro ADME. The note with it: normal rat plasma, room temperature; read-out: Rat Plasma Stability (T1/2; min). The essentials:
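Compounds incubated in normal rat plasma at room temperature, sampled into acetonitrile from 2 to 480 min. Supernatants analysed by HPLC-MS on C18, extracted ion chromatograms of parent and parent+18 (H2O adduct) integrated; T½ = ln(2)/k from single-phase exponential decay fit.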

Series [2] can be described thus: in vitro. The note with it: for fraction unbound at 4 h, 10 µM: both, human, plasma, pH 7.4. As to the method: The following procedure was used to determine the plasma protein binding of a test compound in pooled plasma from human (mixed gender) via equilibrium dialysis in a 96-well plate format. The dialysate compartment is loaded with phosphate-buffered saline (pH 7.4) and the sample side is loaded with plasma spiked with the test compound at a concentration of 10 μM. After loading, samples are covered and incubated for 4 hours at 37° C. After incubation, each compartment is sampled, diluted with acetonitrile/buffer and centrifuged. The supernatants are analyzed by HPLC-MS/MS. The amount measured in the plasma compartment includes both free and bound drug, while that on the buffer side represents free drug only; the differences are used to calculate the percentage plasma protein bound.

A further series can be described thus: physchem. The format is physicochemical. The note with it: pH 7.4, aqueous buffer, kinetic from dmso stock. As to the method:
The test compound was prepared at 200 μM in PBS from a 10 mM DMSO stock solution. The final DMSO concentration was 2%. The PBS buffer samples were mixed thoroughly followed by incubation at room temperature for 24 h. At the end of the incubation, the PBS buffer samples were centrifuged and supernatants analyzed by HPLC.

Series [3] in a line: in vitro. The note with it: both, human, microsomes, pH 7.4. The protocol: The following procedure was used to determine the stability of a test compound in pooled liver microsomes from human (mixed gender) in 96-well plate format. The test compound was quantified at five time points by HPLC-MS/MS analysis. The final microsomal protein concentration in the assay was 0.1 mg/mL. […] The test compound was pre-incubated with human liver microsomes in phosphate buffer (pH 7.4) for 5 min in a 37° C. shaking waterbath. The reaction was initiated by adding NADPH-generating system and incubated for 0, 15, 30, 45, and 60 minutes. The reaction was stopped by transferring the incubation mixture to acetonitrile/methanol. Samples were then mixed and centrifuged and the supernatants used for HPLC-MS/MS analysis. Peak areas corresponding to the test compound were recorded. The compound remaining was calculated by comparing the peak area at each time point to time zero.

T1 sequence (P03951 388-625 limits assumed): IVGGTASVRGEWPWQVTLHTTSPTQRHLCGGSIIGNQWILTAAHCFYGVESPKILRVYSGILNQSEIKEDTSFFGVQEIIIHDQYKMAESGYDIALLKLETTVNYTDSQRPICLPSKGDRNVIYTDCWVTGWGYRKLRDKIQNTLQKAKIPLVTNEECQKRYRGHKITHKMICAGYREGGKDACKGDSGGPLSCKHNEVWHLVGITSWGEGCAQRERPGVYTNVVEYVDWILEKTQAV
T1 sequence (P03951 19-387 partner limits assumed): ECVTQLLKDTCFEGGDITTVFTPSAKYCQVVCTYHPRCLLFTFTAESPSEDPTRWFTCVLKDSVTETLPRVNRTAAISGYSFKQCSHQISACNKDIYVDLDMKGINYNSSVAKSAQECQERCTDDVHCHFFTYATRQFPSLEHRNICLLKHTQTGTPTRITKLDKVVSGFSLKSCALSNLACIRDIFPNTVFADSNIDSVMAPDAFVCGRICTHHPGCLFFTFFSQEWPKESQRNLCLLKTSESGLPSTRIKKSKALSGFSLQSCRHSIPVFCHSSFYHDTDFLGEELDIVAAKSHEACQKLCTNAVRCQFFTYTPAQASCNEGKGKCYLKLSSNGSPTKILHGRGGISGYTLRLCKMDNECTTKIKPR
T2 sequence (P00742 235-488 limits assumed): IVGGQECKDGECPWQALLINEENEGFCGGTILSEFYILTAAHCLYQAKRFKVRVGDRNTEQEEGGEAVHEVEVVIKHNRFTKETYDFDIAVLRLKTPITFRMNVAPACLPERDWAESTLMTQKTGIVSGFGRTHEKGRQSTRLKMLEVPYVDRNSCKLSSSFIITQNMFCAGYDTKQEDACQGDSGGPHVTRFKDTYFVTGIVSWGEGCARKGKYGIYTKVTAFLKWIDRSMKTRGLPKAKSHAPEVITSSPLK
T2 sequence (P00742 41-179 partner limits assumed): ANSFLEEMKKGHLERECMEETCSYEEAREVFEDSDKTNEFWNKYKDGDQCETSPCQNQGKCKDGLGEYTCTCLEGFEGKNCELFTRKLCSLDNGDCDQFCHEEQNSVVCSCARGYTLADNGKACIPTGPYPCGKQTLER

Usually IC50 stands for the point on the concentration scale where inhibition reaches its midpoint. The term fraction unbound denotes free concentration divided by total concentration. A lower fraction unbound goes with extensive binding. In general, solubility refers to the concentration that dissolves in the medium under given conditions. For the compound `C[C@@H](NC(=O)N1C(=O)[C@H](Cc2ccnc(N)c2)[C@H]1C(=O)O)C1CCCCC1` [Example 38], the IC50 at human Factor XIa is < 10 nM. On Factor Xa, the “FXIa Fold Selectivity FXa” value is on record as “I (“I” indicates >1000)”. Also, the “FXIa Fold Selectivity Thrombin” value on Thrombin is on record as “I (“I” indicates >1000)”. In the series on Trypsin, the “FXIa Fold Selectivity Trypsin” value was “H (“H” indicates 500-1000)”. In addition, the half-life in series [1] was > 1.67 h. Further, the unbound share (fraction unbound) at 4 h, 10 µM in the series “in vitro [2]” is > 0.1. Also, the solubility at 4 h in “physchem” is > 100 µM. For the same compound, the half-life at 0.1 µM in “in vitro [3]” is > 1 h.

On to `Nc1cc(C[C@H]2C(=O)N(C(=O)N[C@@H](C3CCCCC3)C(F)(F)F)[C@@H]2C(=O)O)ccn1` [Example 88], for which the IC50 on human Factor XIa was < 10 nM. Besides, the “FXIa Fold Selectivity FXa” value on Factor Xa is listed as “I (“I” indicates >1000)”. The “FXIa Fold Selectivity Thrombin” value on Thrombin is recorded as “I (“I” indicates >1000)”. Also, the “FXIa Fold Selectivity Trypsin” value in the series on Trypsin was “G (“G” indicates 1-500)”. Also, in series [1], the half-life is > 1.67 h. Also, the unbound share (fraction unbound) at 4 h, 10 µM in the series “in vitro [2]” is > 0.1. In addition, in the series “physchem”, the solubility at 4 h is > 100 µM. The half-life at 0.1 µM in the series “in vitro [3]” is > 1 h.

For `C[C@@H](NC(=O)N1C(=O)[C@H](Cc2ccnc(N)c2)[C@H]1C(=O)O)c1ccc2c(c1)OC(F)(F)O2` [Example 91], the IC50 at human Factor XIa is < 10 nM. For the same compound, the “FXIa Fold Selectivity FXa” value at Factor Xa is listed as “I (“I” indicates >1000)”. For the same compound, at Thrombin, the “FXIa Fold Selectivity Thrombin” value is recorded as “I (“I” indicates >1000)”. Also, in the series on Trypsin, the “FXIa Fold Selectivity Trypsin” value is “G (“G” indicates 1-500)”. The half-life in series [1] is > 1.67 h. In “in vitro [2]”, this compound registered an unbound share (fraction unbound) at 4 h, 10 µM of 0.02 to 0.1. For the same compound, the solubility at 4 h in the series “physchem” is > 100 µM. For the same compound, the half-life at 0.1 µM in “in vitro [3]” is > 1 h.

On to `CCOC(=O)[C@@H]1[C@@H](Cc2ccnc(NC(=O)OCOC(=O)C(C)C)c2)C(=O)N1C(=O)N[C@H](C)c1ccc2c(c1)OC(F)(F)O2` [Example 92], for which, on human Factor XIa, the IC50 was 10 to 100 nM. In addition, at Factor Xa, the “FXIa Fold Selectivity FXa” value is on record as “H (“H” indicates 500-1000)”. The “FXIa Fold Selectivity Thrombin” value on Thrombin is given as “I (“I” indicates >1000)”. In addition, the “FXIa Fold Selectivity Trypsin” value in the series on Trypsin is listed as “I (“I” indicates >1000)”. The half-life in series [1] is < 1.67 h. Moreover, in “physchem”, the solubility at 4 h is 1 to 10 µM (≈ 0.621 to 6.21 µg/mL).

Turning to `CC(C)C(=O)OCOC(=O)Nc1cc(C[C@H]2C(=O)N(C(=O)N[C@H](C)c3ccc4c(c3)OC(F)(F)O4)[C@@H]2C(=O)O)ccn1` [Example 100], at human Factor XIa, the half-maximal inhibitory concentration (IC50) lay within 100 to 1000 nM. The “FXIa Fold Selectivity FXa” value on Factor Xa is “G (“G” indicates 1-500)”. Also, the “FXIa Fold Selectivity Thrombin” value at Thrombin is given as “G (“G” indicates 1-500)”. Further, in the series with Trypsin, the “FXIa Fold Selectivity Trypsin” value is reported as “G (“G” indicates 1-500)”. Moreover, the fraction unbound at 4 h, 10 µM in the series “in vitro [2]” was < 0.02. Also, the solubility at 4 h in the series “physchem” is > 100 µM. Moreover, in the series “in vitro [3]”, the half-life at 0.1 µM is < 0.5 h.

In the case of `C[C@@H](NC(=O)N1C(=O)C(Cc2ccnc(Cl)c2)[C@H]1C(=O)O)c1ccc2c(c1)OC(F)(F)O2` (some centres unmarked) [Example 128], the IC50 on human Factor XIa is > 1000 nM. Further, the half-life in series [1] is > 1.67 h. Moreover, the unbound share (fraction unbound) at 4 h, 10 µM in “in vitro [2]” was < 0.02. Also, the solubility at 4 h in the series “physchem” was > 100 µM. Besides, the half-life at 0.1 µM in “in vitro [3]” is > 1 h.

As to `O=C(O)[C@@H]1[C@@H](CCc2cccc(Cl)c2)C(=O)N1C(=O)N[C@@H](C1CCCCC1)C(F)(F)F` [Example 134], the IC50 on human Factor XIa fell in the range of 100 to 1000 nM. In addition, the “FXIa Fold Selectivity FXa” value on Factor Xa is recorded as “G (“G” indicates 1-500)”. Besides, the “FXIa Fold Selectivity Thrombin” value on Thrombin is listed as “G (“G” indicates 1-500)”. In addition, in the series on Trypsin, the “FXIa Fold Selectivity Trypsin” value is recorded as “G (“G” indicates 1-500)”. Besides, in series [1], the half-life is > 1.67 h. For the same compound, the free fraction (fraction unbound) at 4 h, 10 µM in the series “in vitro [2]” was < 0.02. In addition, the solubility at 4 h in the series “physchem” is > 100 µM. The half-life at 0.1 µM in the series “in vitro [3]” was 0.5 to 1 h.

Regarding `CCOC(=O)[C@@H]1C(CCc2cccc(Cl)c2)C(=O)N1C(=O)N[C@@H](C1CCCCC1)C(F)(F)F` (some centres unmarked) [Example 158], the IC50 on human Factor XIa fell in the range of 100 to 1000 nM. The fraction unbound at 4 h, 10 µM in “in vitro [2]” was > 0.1. In addition, the solubility at 4 h in the series “physchem” was < 1 µM. The compound also returned a half-life at 0.1 µM in “in vitro [3]” of 0.5 to 1 h.

For `CCOC(=O)[C@@H]1[C@@H](Cc2ccnc(N)c2)C(=O)N1C(=O)N[C@@H](C)c1ccc2c(c1)OC(F)(F)O2` [Example 166], the IC50 at human Factor XIa was < 10 nM. Moreover, the “FXIa Fold Selectivity FXa” value at Factor Xa is “H (“H” indicates 500-1000)”. In addition, the “FXIa Fold Selectivity Thrombin” value at Thrombin is given as “I (“I” indicates >1000)”. In addition, the “FXIa Fold Selectivity Trypsin” value with Trypsin is recorded as “G (“G” indicates 1-500)”. Further, the half-life in series [1] is < 1.67 h.

`C[C@@H](NC(=O)N1C(=O)[C@H](Cc2ccnc(N)c2)[C@H]1C(=O)O)c1ccc(OC(F)(F)F)cc1` [Example 168]: the IC50 at human Factor XIa is < 10 nM. For the same compound, the “FXIa Fold Selectivity FXa” value at Factor Xa is on record as “I (“I” indicates >1000)”. The “FXIa Fold Selectivity Thrombin” value on Thrombin is “I (“I” indicates >1000)”. In addition, the “FXIa Fold Selectivity Trypsin” value with Trypsin is recorded as “I (“I” indicates >1000)”. Besides, in series [1], the half-life was > 1.67 h.

On to `C[C@@H](NC(=O)N1C(=O)[C@H](Cc2ccncc2)[C@H]1C(=O)O)c1ccc2c(c1)OC(F)(F)O2` [Example 169], for which, on human Factor XIa, the IC50 was 100 to 1000 nM. Also, the “FXIa Fold Selectivity FXa” value on Factor Xa is on record as “G (“G” indicates 1-500)”. Further, at Thrombin, the “FXIa Fold Selectivity Thrombin” value is “H (“H” indicates 500-1000)”. Besides, the “FXIa Fold Selectivity Trypsin” value with Trypsin is “G (“G” indicates 1-500)”. Further, the half-life in series [1] was > 1.67 h. In addition, in “in vitro [2]”, the fraction unbound at 4 h, 10 µM lay in the range of 0.02 to 0.1. In addition, the solubility at 4 h in the series “physchem” was > 100 µM. Further, in “in vitro [3]”, the half-life at 0.1 µM is > 1 h.

For the compound `CCOC(=O)[C@@H]1[C@@H](Cc2ccncc2)C(=O)N1C(=O)N[C@H](C)c1ccc2c(c1)OC(F)(F)O2` [Example 170], the IC50 on human Factor XIa lay in the range of 10 to 100 nM. Further, at Factor Xa, the “FXIa Fold Selectivity FXa” value is reported as “G (“G” indicates 1-500)”. The “FXIa Fold Selectivity Thrombin” value on Thrombin is listed as “G (“G” indicates 1-500)”. In addition, in the series on Trypsin, the “FXIa Fold Selectivity Trypsin” value is “G (“G” indicates 1-500)”. Further, the half-life in series [1] was < 1.67 h.

As to `CCCC(=O)Nc1ccc(OCC(O)CNC(C)C)c(C(C)=O)c1` (centres unmarked) [acebutolol, reference compound], the “binding of reference compounds to human plasma proteins” value in the series “in vitro [2]” was “low”.

`COCCc1ccc(OCC(O)CNC(C)C)cc1` (centres unmarked) [metoprolol, reference compound] yielded a solubility at 24 h in “physchem” of 200 µM (≈ 53.5 µg/mL).

In the case of `C=C[C@H]1C[N@@]2CC[C@H]1C[C@@H]2[C@@H](O)c1ccnc2ccc(OC)cc12` [quinidine, reference compound], the “binding of reference compounds to human plasma proteins” value in “in vitro [2]” is “medium”.
